From ChEMBL document CHEMBL1201862, “PubChem BioAssay data set” (2004) come the findings set out here.

Structures are written as SMILES.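 Where inhibition never reached the appropriate level, the endpoint shown equals the highest concentration tested. Otherwise, values were interpolated linearly from a five-concentration, 48-hour dose response in 96-well plates. Abbreviation: GI50, concentration required for 50% inhibition of growth.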 Active and inactive are the calls of the source. No stated cut-off is given here; in the data, active = GI50 up to about 1.1 µM and inactive = higher.

Some test systems named below: UO-31; MDA-MB-231; DU-145; SK-MEL-5; HCT-15; RPMI-8226; PC-3; NCI-H23; A498; EKVX; SK-OV-3; MCF7; OVCAR-5; UACC-257; K562; Malme-3M; SF-539; SNB-75; A549; NCI/ADR-RES.
Test in all cases: NCI tumour cell line growth inhibition, 48 h

Turning to `[N-]=[N+]=CC(=O)OCC1SCCCS1`, the GI50 in the experiment with UO-31 was > 100 µM (inactive); in the experiment on MDA-MB-231, > 100 µM (inactive); in the experiment on DU-145, > 100 µM (inactive); in the experiment with SK-MEL-5, > 100 µM (inactive); with HCT-15 it was over 100 µM; with RPMI-8226 it was > 100 µM (inactive). For the same compound, the GI50 with PC-3, in the experiment with NCI-H23, in the experiment with A498, in the experiment on EKVX, in the experiment with SK-OV-3 and in the experiment on MCF7 was > 100 µM (inactive) each time. Besides, the GI50 in the experiment on OVCAR-5, in the experiment with UACC-257, with K562 and in the experiment with Malme-3M was > 100 µM (inactive) in each case.

For `CCOP(=O)(OCC)C1CC(n2cc(C)c(=O)[nH]c2=O)OC1CO` (stereo unspecified), the GI50 with SF-539 was > 100 µM (inactive); with UO-31, > 100 µM (inactive); in the experiment with MDA-MB-231, > 100 µM (inactive); in the experiment with DU-145, > 100 µM (inactive); in the experiment on SK-MEL-5 it was > 100 µM (inactive); with HCT-15, over 100 µM. Moreover, the GI50 in the experiment with RPMI-8226 was > 100 µM (inactive); in the experiment on PC-3, > 100 µM (inactive); in the experiment on NCI-H23, 99.1 µM (inactive); with A498 it was > 100 µM (inactive); in the experiment on MCF7 it was > 100 µM (inactive); in the experiment on OVCAR-5, 83.4 µM (inactive). Besides, the GI50 with UACC-257, with SNB-75, with A549, with K562 and with Malme-3M was > 100 µM (inactive) throughout.

`O=C1CCCC2=C1C(c1ccc3c(c1)OCO3)Nc1ccc3ccccc3c12` (stereo unspecified): the GI50 with SF-539 is > 100 µM (inactive); in the experiment on UO-31, > 100 µM (inactive); in the experiment on MDA-MB-231, > 100 µM (inactive); in the experiment on DU-145, > 100 µM (inactive); in the experiment on SK-MEL-5, 93.5 µM (inactive); with HCT-15, over 100 µM. The GI50 with RPMI-8226 was > 100 µM (inactive); in the experiment with NCI-H23, > 100 µM (inactive); in the experiment with A498, > 100 µM (inactive); in the experiment with EKVX, 36.9 µM (inactive); with SK-OV-3 it was > 100 µM (inactive); with MCF7, > 100 µM (inactive). In addition, the GI50 in the experiment on OVCAR-5 was > 100 µM (inactive); with UACC-257, > 100 µM (inactive); in the experiment on SNB-75, > 100 µM (inactive); with A549, > 100 µM (inactive); in the experiment with Malme-3M, > 100 µM (inactive); in the experiment on NCI/ADR-RES, 55.1 µM (inactive).

On to `Cn1ccc(C(=O)NCCCCCNC(=O)c2ccn(C)c(=O)c2O)c(O)c1=O`, for which the GI50 is > 100 µM (inactive) with UO-31; > 100 µM (inactive) with MDA-MB-231; > 100 µM (inactive) in the experiment with DU-145; > 100 µM (inactive) with SK-MEL-5; over 100 µM with HCT-15; > 100 µM (inactive) with PC-3. Besides, the GI50 in the experiment on NCI-H23, with A498, in the experiment on UACC-257, with A549, in the experiment with Malme-3M and in the experiment on NCI/ADR-RES was > 100 µM (inactive) each time.

`Cc1ccc(C)c2c1CC(Cc1ccccc1C(=O)O)C2=O` (stereo unspecified): the GI50 in the experiment on SF-539 was > 100 µM (inactive); in the experiment with UO-31 it was > 100 µM (inactive); in the experiment with MDA-MB-231, > 100 µM (inactive); in the experiment on DU-145 it was > 100 µM (inactive); in the experiment on SK-MEL-5 it was > 100 µM (inactive); in the experiment with HCT-15, over 100 µM. Moreover, the GI50 in the experiment on PC-3, in the experiment on NCI-H23, in the experiment on EKVX, in the experiment with SK-OV-3, in the experiment on MCF7 and in the experiment with OVCAR-5 was > 100 µM (inactive) each time. For the same compound, the GI50 in the experiment on UACC-257, in the experiment on SNB-75, in the experiment on A549, in the experiment with K562, in the experiment with Malme-3M and in the experiment with NCI/ADR-RES was > 100 µM (inactive) throughout.

As for `O=C(/N=N/c1ccccc1Br)NNc1ccccc1Br`, the GI50 was 38.9 µM (inactive) in the experiment on UO-31; 62.2 µM (inactive) with MDA-MB-231; > 100 µM (inactive) with DU-145; 48.4 µM (inactive) with SK-MEL-5; 61.2 µM with HCT-15; 33.8 µM (inactive) in the experiment on RPMI-8226. In addition, the GI50 was 38.2 µM (inactive) with PC-3; 48.9 µM (inactive) in the experiment on NCI-H23; 58.7 µM (inactive) with A498; > 100 µM (inactive) with OVCAR-5; > 100 µM (inactive) in the experiment with UACC-257; > 100 µM (inactive) in the experiment with SNB-75. The GI50 was 64.9 µM (inactive) with A549, 27.3 µM (inactive) in the experiment on K562 and 38.2 µM (inactive) in the experiment with Malme-3M.

Take `c1ccc(NC2(c3nnnn3C3CCCCC3)CCNCC2)cc1`: the GI50 was 15.6 µM (inactive) in the experiment on SF-539; 11.9 µM (inactive) in the experiment on UO-31; 39.6 µM (inactive) in the experiment on MDA-MB-231; 37 µM (inactive) in the experiment on DU-145; 19.5 µM (inactive) in the experiment on SK-MEL-5; 21.2 µM in the experiment on HCT-15. Moreover, the GI50 is 22.9 µM (inactive) with RPMI-8226; 23.8 µM (inactive) in the experiment on NCI-H23; 18 µM (inactive) in the experiment on A498; 20.7 µM (inactive) in the experiment on EKVX; 26 µM (inactive) in the experiment with SK-OV-3; 18.5 µM (inactive) in the experiment on MCF7. For the same compound, the GI50 in the experiment on OVCAR-5 is 14.9 µM (inactive); in the experiment on UACC-257, 15.7 µM (inactive); in the experiment with SNB-75, 14.9 µM (inactive); in the experiment with A549 it was 32.4 µM (inactive); in the experiment with Malme-3M it was 17.1 µM (inactive); in the experiment on NCI/ADR-RES, 66.5 µM (inactive).

For `O=C(NC(CO)Cc1ccc(Oc2cc(CC(CO)NC(=O)OCc3ccccc3)ccc2OC(=O)OCc2ccccc2)cc1)OCc1ccccc1` (stereo unspecified), the GI50 is 20.1 µM (inactive) in the experiment on SF-539; 18.2 µM (inactive) in the experiment with UO-31; 21 µM (inactive) with DU-145; 24.9 µM in the experiment with HCT-15; 2.94 µM (inactive) in the experiment on RPMI-8226; 11.4 µM (inactive) with PC-3. Moreover, the GI50 in the experiment with NCI-H23 was 16.1 µM (inactive); in the experiment with A498, 14.7 µM (inactive); with EKVX, 14.5 µM (inactive); in the experiment with SK-OV-3, 21.3 µM (inactive); in the experiment on MCF7 it was 11.8 µM (inactive); in the experiment on OVCAR-5, 24.4 µM (inactive). Also, the GI50 in the experiment on UACC-257 was 15 µM (inactive); in the experiment on SNB-75, 16.5 µM (inactive); with A549, 11.6 µM (inactive); in the experiment with K562 it was 10.9 µM (inactive); in the experiment with Malme-3M, 16.7 µM (inactive); with NCI/ADR-RES it was 28.4 µM (inactive).

Turning to `Clc1ccc(-c2nc3ccc4ccccc4c3c3c2CCCC3)cc1`, the GI50 was > 100 µM (inactive) in the experiment with SF-539; > 100 µM (inactive) in the experiment on UO-31; > 100 µM (inactive) in the experiment on MDA-MB-231; > 100 µM (inactive) in the experiment with DU-145; > 100 µM (inactive) with SK-MEL-5; 62.8 µM in the experiment on HCT-15. The GI50 in the experiment with RPMI-8226 was > 100 µM (inactive); in the experiment on NCI-H23, > 100 µM (inactive); in the experiment on A498, > 100 µM (inactive); in the experiment with EKVX, 30.1 µM (inactive); with SK-OV-3 it was > 100 µM (inactive); in the experiment on MCF7, > 100 µM (inactive). For the same compound, the GI50 in the experiment with OVCAR-5 was 1.55 µM (inactive); with UACC-257 it was > 100 µM (inactive); with SNB-75, > 100 µM (inactive); in the experiment with A549 it was 63.4 µM (inactive); with K562 it was > 100 µM (inactive); in the experiment on Malme-3M it was > 100 µM (inactive). Moreover, in the experiment with NCI/ADR-RES, the GI50 is > 100 µM (inactive).
